Measurements as given in publication PMC11225352, “A multicenter, randomized, double-blind, placebo-controlled ascending dose study to evaluate the safety, tolerability, pharmacokinetics (PK) and pharmacodynamic (PD) effects of Posiphen in subjects with early Alzheimer’s Disease” (Alzheimer's Research & Therapy, 2024).

Experiments:
APP = experiment: Post hoc comprehensive compartmental modeling of APP production rate from SILK data; type: in vivo, human
Procedure: For SILK, the fraction of labeled Aβ for Aβ38, 40, and 42 during 36 h after administration of study drug for each subject was calculated, as described. The FSR measures were calculated by fitting a line to the upslope of the CSF Aβ labeling data. It was assumed that the upslope occurred between hours 6–16 h after the start of confinement. FSR for treated and untreated subjects were compared by analysis of variance (ANOVA). The percentage of newly synthesized and degraded Aβ was estimated over 36 h by multiplying the […] concentration of Aβ measured at the start of confinement (i.e. at catheter placement; time = 0) by the percentage of Aβ that contains ^13C6-leucine at each time point. This can be used to estimate the AUC of the drug for decreasing the amount of newly produced Aβ [24]. As a post hoc analysis, the FSR measurement was also performed with different assumptions: the timeframe for measuring the upslope was automatically detected based on the slope of the SILK curve (see supplementary materials for method and code). As an additional post hoc analysis, a newer model for SILK that take into count the multiple compartments and CSF and other spaces involved in APP metabolism was also used to estimate APP production rates, as described below.
APP and Aβ production and clearance rates were determined using a recently described comprehensive model. The model accounts for the bi-hourly withdrawal of 6 mL of CSF, which is known to alter the lumbar CSF concentration of Aβ [25]. The model estimates rates of APP production, enzymatic production of Aβ, transport of Aβ from interstitial fluid (ISF) to CSF, enzymatic degradation of Aβ, blood-brain barrier transport of Aβ, as well as CSF mixing throughout the subarachnoid space (SAS) and clearance of CSF from cranial and spinal subarachnoid space (SAS). For the DISCOVER trial, MRI volumetric scans were not available, so CSF volumes (cranial, cisternal and ventricular) were estimated based on the subject’s age using data from the previous study (see Supplementary Materials). […]

Aβ38 = experiment: CSF Aβ38 level, screening to day 21 (MSD immunoassay); type: in vivo, human; details: ANOVA with age and sex as covariates; p = 0.47
Procedure: (§1) For biochemical analysis to derive data for SILK, ^13C6-leucine was analyzed in plasma and CSF by mass spectrometry, and Aβ peptides in CSF were analyzed by immunoprecipitation-mass spectrometry (IP-MS) as previously described, by C2N Diagnostics (St Louis, MO). CSF levels of sAPPα, sAPPβ, Aβ38, 40 and 42 were analyzed by the ADCS Biomarker Core using Mesoscale Discovery (MSD) electrochemiluminescent assays (Mesoscale Discovery, Rockville, MD). Levels of Posiphen and its N1 and N8 metabolites in plasma and CSF were measured by Charles River Laboratories (Montreal, CA) by high-performance liquid chromatographic mass spectrometry, with use of deuterated Posiphen (procured by Charles River Laboratories) as an internal standard.
(§2) Changes in CSF biomarkers from the screening to confinement (sample at time of placement of catheter) were compared in the treatment and placebo groups by ANOVA, with models that included age, sex and baseline MMSE, and further analysis stratified by treatment dose. A similar approach was taken to analyze changes in MMSE, ADAS-cog and NPI. Data were analyzed using R (version 4.2.2).

Aβ42 = experiment: CSF Aβ42 level, screening to day 21 (MSD immunoassay); type: in vivo, human; details: ANOVA with age and sex as covariates; p = 0.33
Procedure: as §1, §2

sAPPα = experiment: CSF sAPPα level, screening to day 21 (MSD immunoassay); type: in vivo, human; details: ANOVA with age and sex as covariates; p = 0.38
Procedure: as §1, §2

Total tau = experiment: CSF total tau level, screening to day 21; type: in vivo, human
Procedure: as §2

APP mRNA = system: APP mRNA; design: method as in PMID 20558735, PMID 22693681; details: resulting in decreased production of APP and Aβ; cited from earlier work

CN1CC[C@]2(C)c3cc(OC(=O)Nc4ccccc4)ccc3N(C)[C@H]12 [Posiphen]
APP production, placebo vs 120 mg per day group (APP; model with pre-drug lumbar CSF concentration as covariate): showed significance | APP production rate (APP; single 180 mg per day subject): low | APP production rates (APP; subjects receiving 120 or 180 mg per day, differences not significant by non-parametric analysis): trended lower | CSF Aβ38, Treatment difference (Posiphen – placebo) (Aβ38): -0.202 (0.27) p = 0.47 pg/mL | CSF Aβ42, Treatment difference (Posiphen – placebo) (Aβ42): -0.104 (0.102) p = 0.33 pg/mL | CSF sAPPα, Treatment difference (Posiphen – placebo) (sAPPα): 9.99 (10.8) p = 0.38 pg/mL | CSF Total tau, Treatment difference (Posiphen – placebo) (Total tau; ANOVA with age and sex as covariates, p = 0.39): 133 (149) p = 0.39 pg/mL | CSF Total tau, Day 21 (Total tau; Posiphen arm, all doses (n = 10), screening 751 ± 404 (n = 11)): 849 ± 369 (n = 10) pg/mL | CSF Total tau, LS mean change (Total tau; screening to day 21, SEM 79.1, placebo 53.7): 186.4 pg/mL | translation of APP mRNA (APP mRNA): decreased
